Results as given in PubChem BioAssay (NCI).
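Method: 48-hour compound exposure of cells in 96-well plates, five concentrations, linear interpolation of endpoints. Abbreviation: GI50, concentration required for 50% inhibition of growth. Definition used: TGI = concentration required for complete inhibition of growth.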

Assays:
Assay in all cases: inhibition of tumour cell growth, NCI panel, 48 h
UACC-257 melanoma = system: UACC-257 melanoma
HCT-116 colon = system: HCT-116 colon
UACC-62 melanoma = system: UACC-62 melanoma
HCC-2998 colon = system: HCC-2998 colon
SF-268 CNS = system: SF-268 CNS
ACHN renal = system: ACHN renal
HOP-92 NSCLC = system: HOP-92 NSCLC
KM12 colon = system: KM12 colon
SNB-75 CNS = system: SNB-75 CNS
LOX IMVI melanoma = system: LOX IMVI melanoma

Row | SMILES | GI50 (UACC-257 melanoma) [nM] | TGI (UACC-257 melanoma) [µM] | GI50 (HCT-116 colon) [nM] | TGI (HCT-116 colon) [µM] | GI50 (UACC-62 melanoma) [nM] | TGI (UACC-62 melanoma) [µM] | GI50 (HCC-2998 colon) [nM] | TGI (HCC-2998 colon) [µM] | GI50 (SF-268 CNS) [nM] | TGI (SF-268 CNS) [µM] | GI50 (ACHN renal) [nM] | TGI (ACHN renal) [µM] | GI50 (HOP-92 NSCLC) [nM] | TGI (HOP-92 NSCLC) [µM] | GI50 (KM12 colon) [nM] | TGI (KM12 colon) [µM] | GI50 (SNB-75 CNS) [µM] | TGI (SNB-75 CNS) [µM] | GI50 (LOX IMVI melanoma) [nM] | TGI (LOX IMVI melanoma) [µM]
1 | C#CCSc1nnnn1-c1ccc(Br)c(C)c1 | 35200 | > 100 | 29300 | > 100 | 18300 | 91.2 | 33800 | > 100 | 24600 | > 100 | 33100 | > 100 | 14500 | 74.5 | 35000 | > 100 | 25.7 | > 100 | 20900 | > 100
2 | C=C(CNCCc1ccc(O)cc1)[C@@H]1CC[C@]2(CO)CC[C@]3(C)[C@H](CC[C@@H]4[C@@]5(C)CCC(NCCO)C(C)(C)[C@@H]5CC[C@]43C)[C@@H]12 (stereo not given in full) | 1860 | 3.27 | 351 | 1.19 | 1790 | 3.3 | 1570 | 3.21 | 1570 | 3.23 | 1790 | 3.2 | 1090 | 2.41 | 1660 | 3.16 | 1.24 | 2.52 | 1390 | 2.88
3 | c1ccc(CNc2nc(Nc3ccc(-c4nc5ccccc5[nH]4)cc3)c3cn[nH]c3n2)cc1 | 1610 | 3.4 | 1740 | 3.64 | 2130 | 4.92 | 1910 | 3.78 | 2370 | 7.1 | 2290 | 6.5 | 1990 | 5.56 | 1900 | 4.87 | 5.12 | 47.1 | 1690 | 3.36
4 | COc1ccc(Nc2nc3c(N)cc(C(F)(F)F)cc3nc2-c2ccccc2)cc1 |  | > 100 |  | > 100 |  | > 100 |  | > 100 |  | > 100 |  | > 100 |  | > 100 |  | > 100 |  | 82.2 |  | > 100
5 | CC1(C)CCC(CN2CCN(c3ccc(C(=O)NS(=O)(=O)c4ccc(NCC5CCOCC5)c([N+](=O)[O-])c4)c(Oc4cnc5[nH]ccc5c4)c3)CC2)=C(c2ccc(Cl)cc2)C1 | 1980 | 4.94 | 3360 | 11.8 | 782 | 2.16 | 2100 | 3.92 | 3580 | 17.8 | 2930 | 10.2 | 1290 | 2.77 | 2980 | 9.86 | 3.71 | 15.1 | 2210 | 4.85
